Test results reported in patent US9034896B2, “N-(imidazolidin-2-ylidene)-heterocyclopenta[b]pyridine derivatives as modulators of alpha 2 adrenergic receptors” (Allergan, Inc., priority 2011, dated 2015).

Key:
Type in all cases: cell-based
[1] = molecular target: T1, Alpha 2C adrenergic receptor (Homo sapiens, UniProt P18825); test: RSAT (Receptor Selection and Amplification Technology) assay, alpha 2C; settings: for Intrinsic Activity (efficacy) Alpha 2C: relative efficacy compared to a standard full agonist; for EC50: read-out: Intrinsic Activity EC50 Alpha 2C
T1 construct: expressed in transfected cells
T1 sequence (P18825 1-462): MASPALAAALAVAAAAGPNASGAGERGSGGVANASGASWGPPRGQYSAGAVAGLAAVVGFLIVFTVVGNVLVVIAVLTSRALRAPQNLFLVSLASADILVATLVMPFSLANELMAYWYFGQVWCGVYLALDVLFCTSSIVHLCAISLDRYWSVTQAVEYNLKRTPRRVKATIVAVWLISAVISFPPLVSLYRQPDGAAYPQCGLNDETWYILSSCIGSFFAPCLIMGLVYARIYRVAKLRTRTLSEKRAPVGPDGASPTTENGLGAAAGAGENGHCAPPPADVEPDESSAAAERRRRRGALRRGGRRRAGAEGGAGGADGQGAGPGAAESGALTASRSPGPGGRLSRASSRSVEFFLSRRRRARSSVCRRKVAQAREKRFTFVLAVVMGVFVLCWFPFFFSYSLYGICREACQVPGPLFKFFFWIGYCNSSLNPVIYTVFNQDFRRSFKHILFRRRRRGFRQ
Protocol: (§1) Cells expressing each of the alpha 2 adrenergic receptors alone were incubated with the various compounds and a receptor-mediated growth response was measured. The compound's activity is expressed as its relative efficacy compared to a standard full agonist (see Table 3).

[2] = molecular target: T2, Alpha 2B adrenergic receptor (Homo sapiens, UniProt P18089); test: RSAT (Receptor Selection and Amplification Technology) assay, alpha 2B; settings: for Intrinsic Activity EC50 Alpha 2B / EC50: cells expressing alpha 2B receptor alone, receptor-mediated growth response, NA = not active; for Intrinsic Activity (efficacy) Alpha 2B: relative efficacy compared to a standard full agonist; for EC50: read-out: Intrinsic Activity EC50 Alpha 2B
T2 construct: expressed in transfected cells
T2 sequence (P18089 1-450): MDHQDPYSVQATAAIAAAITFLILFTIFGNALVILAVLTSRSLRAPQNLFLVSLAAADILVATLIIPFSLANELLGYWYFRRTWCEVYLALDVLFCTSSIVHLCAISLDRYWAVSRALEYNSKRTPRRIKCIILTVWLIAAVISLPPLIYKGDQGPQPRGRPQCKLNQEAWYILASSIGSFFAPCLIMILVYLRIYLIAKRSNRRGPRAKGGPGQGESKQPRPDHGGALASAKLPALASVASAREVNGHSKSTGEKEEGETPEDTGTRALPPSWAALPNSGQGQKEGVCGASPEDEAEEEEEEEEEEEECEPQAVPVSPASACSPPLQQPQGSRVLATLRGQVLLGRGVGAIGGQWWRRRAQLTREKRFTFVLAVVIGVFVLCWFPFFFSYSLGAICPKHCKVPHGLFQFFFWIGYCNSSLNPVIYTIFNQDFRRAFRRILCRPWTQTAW
Protocol: as §1

[3] = molecular target: T3, Alpha 2A adrenergic receptor (Homo sapiens, UniProt P08913); test: RSAT (Receptor Selection and Amplification Technology) assay, alpha 2A; settings: for EC50: cells expressing alpha 2A receptor alone, receptor-mediated growth response, NA = not active, read-out: Intrinsic Activity EC50 Alpha 2A; for Intrinsic Activity (efficacy) Alpha 2A: relative efficacy compared to a standard full agonist
T3 construct: expressed in transfected cells
T3 sequence (P08913 1-465): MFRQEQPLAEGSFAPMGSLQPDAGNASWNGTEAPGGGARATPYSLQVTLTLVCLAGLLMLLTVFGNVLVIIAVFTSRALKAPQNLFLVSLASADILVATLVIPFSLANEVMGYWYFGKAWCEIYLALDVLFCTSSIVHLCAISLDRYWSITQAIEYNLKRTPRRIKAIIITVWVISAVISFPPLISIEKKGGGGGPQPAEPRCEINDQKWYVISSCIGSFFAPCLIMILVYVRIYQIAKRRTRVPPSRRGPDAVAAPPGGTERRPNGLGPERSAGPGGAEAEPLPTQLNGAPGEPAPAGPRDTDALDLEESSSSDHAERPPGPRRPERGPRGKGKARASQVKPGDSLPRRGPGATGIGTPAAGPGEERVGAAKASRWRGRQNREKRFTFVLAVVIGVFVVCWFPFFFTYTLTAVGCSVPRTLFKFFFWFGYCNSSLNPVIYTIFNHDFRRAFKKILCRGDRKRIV
Protocol: as §1

[4] = cells expressing alpha 2C receptor alone, receptor-mediated growth response, NA = not active

SMILES	Intrinsic Activity EC50 Alpha 2C [1, 4]	Intrinsic Activity (efficacy) Alpha 2C [1]	Intrinsic Activity EC50 Alpha 2B [2]	Intrinsic Activity (efficacy) Alpha 2B [2]	EC50 [3] [nM]	Intrinsic Activity (efficacy) Alpha 2A [3]	EC50 [1, 4] [nM]	EC50 [2] [nM]
Cc1c(N=C2NCCN2)cnc2[nH]ccc12 [Compound 1, N-(4,5-dihydro-1H-imidazol-2-yl)-4-methyl-1H-pyrrolo[2,3-b]pyridin-5-amine]	potent	(0.94)	potent	(0.82)	8.2	0.85	–	–
Clc1c(N=C2NCCN2)cnc2[nH]ccc12 [Compound 2, 4-Chloro-N-(imidazolidin-2-ylidene)-1H-pyrrolo[2,3-b]pyridin-5-amine]	–	0.91	–	0.72	25.2	0.73	10.5	5.36
Brc1c(N=C2NCCN2)cnc2[nH]ccc12 [Compound 3, 4-Bromo-N-(imidazolidin-2-ylidene)-1H-pyrrolo[2,3-b]pyridin-5-amine]	–	0.84	–	0.17	62.2	0.16	31.2	32.6
Cn1ccc2cc(N=C3NCCN3)cnc21 [Compound 4, N-(imidazolidin-2-ylidene)-1-methyl-1H-pyrrolo[2,3-b]pyridin-5-amine]	–	0.93	–	0.57	–	–	31	114
c1cc2cc(N=C3NCCN3)cnc2o1 [Compound 5, N-(imidazolidin-2-ylidene)furo[2,3-b]pyridin-5-amine]	–	0.73	–	–	–	–	2110	–
c1nc2cc(N=C3NCCN3)cnc2s1 [Compound 6, N-(4,5-dihydro-1H-imidazol-2-yl)thiazolo[5,4-b]pyridin-6-amine]	–	0.97	–	0.46	–	–	10	267
c1cc2cc(N=C3NCCN3)cnc2[nH]1 [Compound 7, N-(imidazolidin-2-ylidene)-1H-pyrrolo[2,3-b]pyridin-5-amine]	–	0.94	potent	(0.87)	16.2	0.89	7.3	–
c1nc2cc(N=C3NCCN3)cnc2[nH]1 [Compound 8, N-(imidazolidin-2-ylidene)-3H-imidazo[4,5-b]pyridin-6-amine]	–	0.87	–	0.61	–	–	448	722
